We go through 1 compound from patent publication US20220313715A1, “PHARMACEUTICAL COMPOSITION, FOR PREVENTING OR TREATING HEPATIC FIBROSIS, COMPRISING 8-OHDG” (GIL MEDICAL CENTER, priority 2016, published 2022).

In assay [1] the test system is hydroxyproline. Description: Hydroxyproline level in liver tissue of bile duct ligation liver fibrosis animal model. Format: in vivo, Sprague-Dawley rats. Particulars: BDL rats, 8-OHdG 60 mg/kg/day for 3 weeks (Experimental Group 2) vs BDL only (Experimental Group 1); absorbance at 560 nm; FIG. 1. The text has this:
250 g to 300 g male Sprague-Dawley rats were subject to bile duct ligation (BDL) and atresia of bile duct to prepare liver fibrosis animal models. […] Six of the animal models were laparotomized, and the proximal and distal bile ducts were ligated and then cut in the middle to separate the bile duct. The animal models were then sutured and allowed to recover to be used for Experimental Group 1. Six animal models treated in the same manner as experimental group 1 were sutured and administered with 8-OHdG in the amount of 60 mg/kg/day for 3 weeks to be used for Experimental Group 2. The animal models of each of the control and experimental groups were sutured and raised for 3 weeks, followed by taking blood and liver tissues therefrom to be used for subsequent experimental procedures.

Assay [2] concerns TGF-β. In words: qPCR mRNA level of TGF-β in liver tissue of liver fibrosis animal model. In kind it is in vivo, Sprague-Dawley rats. As to conditions: BDL rats, 60 mg/kg/day for 3 weeks vs Experimental Group 1, GAPDH internal control, FIG. 2a. The text has this: (§1) 250 g to 300 g male Sprague-Dawley rats were subject to bile duct ligation (BDL) and atresia of bile duct to prepare liver fibrosis animal models. Six of the animal models were laparotomized, and the proximal and distal bile ducts were ligated and then cut in the middle to separate the bile duct. The animal models were then sutured and allowed to recover to be used for Experimental Group 1. Six animal models treated in the same manner as experimental group 1 were sutured and administered with 8-OHdG in the amount of 60 mg/kg/day for 3 weeks to be used for Experimental Group 2. The animal models of each of the control and experimental groups were sutured and raised for 3 weeks, followed by taking blood and liver tissues therefrom to be used for subsequent experimental procedures. […]
(In general: Quantitative PCR measures a nucleic acid by following its amplification.)

Assay [3] relates to TIMP-1. In words: qPCR mRNA level of TIMP-1 in liver tissue of liver fibrosis animal model. Particulars: BDL rats, 60 mg/kg/day for 3 weeks vs Experimental Group 1, FIG. 2b. In kind it is in vivo, Sprague-Dawley rats.
Source text: as §1

Assay [4] relates to Collagen Iα1. In words: qPCR mRNA level of collagen in liver tissue of liver fibrosis animal model. In kind it is in vivo, Sprague-Dawley rats. As to conditions: BDL rats, 60 mg/kg/day for 3 weeks vs Experimental Group 1, FIG. 2c.
Source text: as §1

For assay [5], the system named is α-SMA. In words: qPCR mRNA level of α-SMA in liver tissue of liver fibrosis animal model. Particulars: BDL rats, 60 mg/kg/day for 3 weeks vs Experimental Group 1, FIG. 2d. In kind it is in vivo, Sprague-Dawley rats.
Source text: as §1

For assay [6], the system named is NOX1. Description: qPCR mRNA level of NOX1 in liver tissue of liver fibrosis animal model. Format: in vivo, Sprague-Dawley rats. As to conditions: BDL rats, 60 mg/kg/day for 3 weeks vs Experimental Group 1, FIG. 2e.
Source text: as §1

For assay [7], the system named is NOX2. In words: qPCR mRNA level of NOX2 in liver tissue of liver fibrosis animal model. Format: in vivo, Sprague-Dawley rats. As to conditions: BDL rats, 60 mg/kg/day for 3 weeks vs Experimental Group 1, FIG. 2f.
Source text: as §1

Assay [8] relates to collagen. Description: Picro Sirius Red staining of collagen in liver tissue of liver fibrosis animal model. Format: in vivo, Sprague-Dawley rats. As to conditions: BDL rats, 60 mg/kg/day for 3 weeks vs Experimental Group 1; Picro Sirius Red stain, ImageJ; FIG. 3a. The text has this: (§2) 250 g to 300 g male Sprague-Dawley rats were subject to bile duct ligation (BDL) and atresia of bile duct to prepare liver fibrosis animal models. Six of the animal models were laparotomized, and the proximal and distal bile ducts were ligated and then cut in the middle to separate the bile duct. The animal models were then sutured and allowed to recover to be used for Experimental Group 1. Six animal models treated in the same manner as experimental group 1 were sutured and administered with 8-OHdG in the amount of 60 mg/kg/day for 3 weeks to be used for Experimental Group 2. The animal models of each of the control and experimental groups were sutured and raised for 3 weeks, followed by taking blood and liver tissues therefrom to be used for subsequent experimental procedures.

The subject of assay [9] is α-SMA. In words: Western blot of α-SMA protein in liver tissue of liver fibrosis animal model. Format: in vivo, Sprague-Dawley rats. As to conditions: BDL rats, 60 mg/kg/day for 3 weeks vs Experimental Group 1, GAPDH internal control, FIG. 3b. The text has this: 250 g to 300 g male Sprague-Dawley rats were subject to bile duct ligation (BDL) and atresia of bile duct to prepare liver fibrosis animal models. Six of the animal models were laparotomized, and the proximal and distal bile ducts were ligated and then cut in the middle to separate the bile duct. The animal models were then sutured and allowed to recover to be used for Experimental Group 1. Six animal models treated in the same manner as experimental group 1 were sutured and administered with 8-OHdG in the amount of 60 mg/kg/day for 3 weeks to be used for Experimental Group 2. The animal models of each of the control and experimental groups were sutured and raised for 3 weeks, followed by taking blood and liver tissues therefrom to be used for subsequent experimental procedures. […] GAPDH protein was used as an internal control.
On the technique in general: In western blotting, separated proteins are transferred to a membrane and probed.

In assay [10] the test system is NOX1. Description: Immunofluorescent staining of NOX1 in liver tissue of liver fibrosis animal model. Format: in vivo, Sprague-Dawley rats. As to conditions: BDL rats, 60 mg/kg/day for 3 weeks vs Experimental Group 1, FIG. 3c.
Source text: as §2

In assay [11] the test system is NOX2. Description: Immunofluorescent staining of NOX2 in liver tissue of liver fibrosis animal model. In kind it is in vivo, Sprague-Dawley rats. As to conditions: BDL rats, 60 mg/kg/day for 3 weeks vs Experimental Group 1, FIG. 3d.
Source text: as §2

Assay [12] concerns α-SMA. In words: Immunofluorescent staining of α-SMA (hepatic stellate cell activity index) in liver tissue of liver fibrosis animal model. Particulars: BDL rats, 60 mg/kg/day for 3 weeks vs Experimental Group 1; immunofluorescent co-staining with NOX1 (FIG. 3c) or NOX2 (FIG. 3d). In kind it is in vivo, Sprague-Dawley rats.
Source text: as §2

For assay [13], the target named is RAC1 (Homo sapiens, UniProt P63000). Particulars: binds to RAC1-GTP through competition with GTP; leads to inhibition of activity of NOX complex; cited from earlier work.

As to `Nc1nc2c(nc(O)n2[C@H]2C[C@H](O)[C@@H](CO)O2)c(=O)[nH]1` [8-OHdG, 8-hydroxydeoxyguanosine], the “level of hydroxyproline in the liver tissue” value in assay [1] is reported as “reduced”. Moreover, in assay [2], the “mRNA level of TGF-β in the liver tissue” value was “reduced”. Also, the “mRNA level of TIMP-1 in the liver tissue” value in assay [3] is listed as “reduced”. In assay [4], the “mRNA level of collagen in the liver tissue” value is “reduced”. For the same compound, the “mRNA level of α-SMA in the liver tissue” value in assay [5] is “reduced”. Besides, the “mRNA level of NOX1 in the liver tissue” value in [6] was “reduced”. Moreover, the “mRNA level of NOX2 in the liver tissue” value in assay [7] is “reduced”. Moreover, in assay [8], the “protein level of collagen in the liver tissue” value is on record as “reduced”. Moreover, the “protein level of α-SMA in the liver tissue” value in assay [9] is on record as “reduced”. Besides, in assay [10], the “protein level of NOX1 in the liver tissue” value is “reduced”. Besides, the “protein level of NOX2 in the liver tissue” value in [11] is given as “reduced”. For the same compound, the “protein level of α-SMA used as a hepatic stellate cell activity index” value in assay [12] is “reduced”. Further, in assay [13], the RAC1 activation entry was “inhibits”.
